Assay results reported in PubChem BioAssay AID1963853 (Molecular Pharmacology Branch, DTP, NCI, 2024).

Tested on: 266295-075-R-J1-PDC spheroid viability
Assay: Anticancer human tumor 266295-075-R-J1-PDC patient-derived head and neck squamous carcinoma cell line growth inhibition [POLQ]
Conditions: spheroids with HUVEC and MSC; for IC50: curve of first compound; for viability, T/C: stronger effect = lower value
How it was run: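 Patient-derived tumour cells were co-cultured with HUVEC and mesenchymal stem cells as multicellular spheroids at 37 °C. They were treated with POLQ inhibitors (novobiocin, ART-558, RP6685) alone or combined with other agents. Top concentrations were at or near clinical Cmax (otherwise 10 microM; SN-38 at 1 microM), decreasing in half-log steps.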

[1] = second compound 0.0316 µM, first compound 0.0316 µM
[2] = second compound 0.0316 µM, first compound 0.1 µM
[3] = second compound 0.0316 µM, first compound 0.316 µM
[4] = second compound 0.0316 µM, first compound 1 µM
[5] = second compound 0.1 µM, first compound 0.0316 µM
[6] = second compound 0.1 µM, first compound 0.1 µM
[7] = second compound 0.1 µM, first compound 0.316 µM
[8] = second compound 0.1 µM, first compound 1 µM
[9] = second compound 0.316 µM, first compound 0.0316 µM
[10] = second compound 0.316 µM, first compound 0.1 µM
[11] = second compound 0.316 µM, first compound 0.316 µM
[12] = second compound 0.316 µM, first compound 1 µM
[13] = second compound 1 µM, first compound 0.0316 µM
[14] = second compound 1 µM, first compound 0.1 µM
[15] = second compound 1 µM, first compound 0.316 µM
[16] = second compound 1 µM, first compound 1 µM
[17] = second compound 3.16 µM, first compound 0.0316 µM
[18] = second compound 3.16 µM, first compound 0.1 µM
[19] = second compound 3.16 µM, first compound 0.316 µM
[20] = second compound 3.16 µM, first compound 1 µM
[21] = second compound 10 µM, first compound 0.0316 µM
[22] = second compound 10 µM, first compound 0.1 µM
[23] = second compound 10 µM, first compound 0.316 µM
[24] = second compound 10 µM, first compound 1 µM
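Also: spheroids exposed to compounds for seven days before readout.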

## C=CCn1c(=O)c2cnc(Nc3ccc(N4CCN(C)CC4)cc3)nc2n1-c1cccc(C(C)(C)O)n1 + Nc1ccc(C#CCN(C(=O)Cc2ncc(C(F)(F)F)cc2C(F)(F)F)c2ccc(F)cc2)nn1
Second compound 0.0316 µM
  IC50: > 1 µM
Second compound 0.1 µM
  IC50: > 1 µM
Second compound 0.316 µM
  IC50: > 1 µM
Second compound 1 µM
  IC50: > 1 µM
Second compound 3.16 µM
  IC50: > 1 µM
Second compound 10 µM
  IC50: > 1 µM
Second compound 0.0316 µM, first compound 0.00316 µM
  viability, T/C: 102%
Second compound 0.0316 µM, first compound 0.01 µM
  viability, T/C: 90.4%
[1]
  viability, T/C: 101%
[2]
  viability, T/C: 89.2%
[3]
  viability, T/C: 86.2%
[4]
  viability, T/C: 63.8%
Second compound 0.1 µM, first compound 0.00316 µM
  viability, T/C: 114%
Second compound 0.1 µM, first compound 0.01 µM
  viability, T/C: 95.8%
[5]
  viability, T/C: 88.1%
[6]
  viability, T/C: 125%
[7]
  viability, T/C: 84.1%
[8]
  viability, T/C: 68.8%
Second compound 0.316 µM, first compound 0.00316 µM
  viability, T/C: 98.7%
Second compound 0.316 µM, first compound 0.01 µM
  viability, T/C: 99.1%
[9]
  viability, T/C: 84.1%
[10]
  viability, T/C: 85.2%
[11]
  viability, T/C: 69.3%
[12]
  viability, T/C: 65.3%
Second compound 1 µM, first compound 0.00316 µM
  viability, T/C: 93%
Second compound 1 µM, first compound 0.01 µM
  viability, T/C: 96.2%
[13]
  viability, T/C: 87.7%
[14]
  viability, T/C: 101%
[15]
  viability, T/C: 81.3%
[16]
  viability, T/C: 54.3%
Second compound 3.16 µM, first compound 0.00316 µM
  viability, T/C: 102%
Second compound 3.16 µM, first compound 0.01 µM
  viability, T/C: 106%
[17]
  viability, T/C: 85.2%
[18]
  viability, T/C: 77.3%
[19]
  viability, T/C: 72.4%
[20]
  viability, T/C: 63.5%
Second compound 10 µM, first compound 0.00316 µM
  viability, T/C: 115%
Second compound 10 µM, first compound 0.01 µM
  viability, T/C: 90.6%
[21]
  viability, T/C: 91.5%
[22]
  viability, T/C: 109%
[23]
  viability, T/C: 81.2%
[24]
  viability, T/C: 57.3%

## C#Cc1c(F)ccc2cc(O)cc(-c3ncc4c(N5CC6CCC(C5)N6)nc(OCC56CCCN5CC(F)C6)nc4c3F)c12 (centres undefined) + Nc1ccc(C#CCN(C(=O)Cc2ncc(C(F)(F)F)cc2C(F)(F)F)c2ccc(F)cc2)nn1
Second compound 0.0316 µM
  IC50: > 10 µM
Second compound 0.1 µM
  IC50: 7.4 µM
Second compound 0.316 µM
  IC50: 8.3 µM
Second compound 1 µM
  IC50: > 10 µM
Second compound 3.16 µM
  IC50: > 10 µM
Second compound 10 µM
  IC50: > 10 µM
[1]
  viability, T/C: 86.8%
[2]
  viability, T/C: 89%
[3]
  viability, T/C: 82.9%
[4]
  viability, T/C: 71.6%
Second compound 0.0316 µM, first compound 3.16 µM
  viability, T/C: 60.8%
Second compound 0.0316 µM, first compound 10 µM
  viability, T/C: 50%
[5]
  viability, T/C: 90.2%
[6]
  viability, T/C: 103%
[7]
  viability, T/C: 75.2%
[8]
  viability, T/C: 81%
Second compound 0.1 µM, first compound 3.16 µM
  viability, T/C: 67%
Second compound 0.1 µM, first compound 10 µM
  viability, T/C: 43.7%
[9]
  viability, T/C: 89.2%
[10]
  viability, T/C: 71.7%
[11]
  viability, T/C: 63%
[12]
  viability, T/C: 84.1%
Second compound 0.316 µM, first compound 3.16 µM
  viability, T/C: 60.7%
Second compound 0.316 µM, first compound 10 µM
  viability, T/C: 47.3%
[13]
  viability, T/C: 114%
[14]
  viability, T/C: 84%
[15]
  viability, T/C: 70.7%
[16]
  viability, T/C: 68.3%
Second compound 1 µM, first compound 3.16 µM
  viability, T/C: 56.9%
Second compound 1 µM, first compound 10 µM
  viability, T/C: 54.7%
[17]
  viability, T/C: 80.8%
[18]
  viability, T/C: 90.6%
[19]
  viability, T/C: 74.7%
[20]
  viability, T/C: 68.7%
Second compound 3.16 µM, first compound 3.16 µM
  viability, T/C: 71.6%
Second compound 3.16 µM, first compound 10 µM
  viability, T/C: 64.1%
[21]
  viability, T/C: 91.8%
[22]
  viability, T/C: 73.9%
[23]
  viability, T/C: 82.5%
[24]
  viability, T/C: 63.8%
Second compound 10 µM, first compound 3.16 µM
  viability, T/C: 64.1%
Second compound 10 µM, first compound 10 µM
  viability, T/C: 52.4%
